target: unphosphorylated-BTK kinase domain (UP-BTK), GST-tagged human BTK (389-659aa) (Homo sapiens (Human), UniProt Q06187); assay: BTK Kinase Lanthascreen Binding Assay; details: compound, 50 nM Tracer 236, 2 nM anti-GST antibody, 60 minutes; pIC50 = negative log of the IC50 in molar
Protocol: BTK Kinase Lanthascreen Binding Assay:
A BTK kinase lanthascreen binding assay monitors compound binding to unphosphorylated-BTK kinase domain (UP-BTK), by competing with a fluorescent labeled tracer. […] Data were analyzed using Xlfit™ version 5.3 from ID Business Solutions (Guildford), Microsoft Excel add-in. pIC50 refers to the negative log of the IC50 in molar.

unphosphorylated-BTK kinase domain (UP-BTK), GST-tagged human BTK (389-659aa), sequence (Q06187 389-659): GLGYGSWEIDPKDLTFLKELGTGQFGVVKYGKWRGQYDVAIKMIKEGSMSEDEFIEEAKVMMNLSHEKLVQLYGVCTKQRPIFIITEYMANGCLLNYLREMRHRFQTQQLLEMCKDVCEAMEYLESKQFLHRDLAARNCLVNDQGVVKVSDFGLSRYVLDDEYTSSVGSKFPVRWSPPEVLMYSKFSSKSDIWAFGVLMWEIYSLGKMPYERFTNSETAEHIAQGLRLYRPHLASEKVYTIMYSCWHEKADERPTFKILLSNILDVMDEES

SMILES	BTK_I_binding pIC50
Cc1cc(Oc2ccccc2)ccc1N1C(=O)Nc2c(C(=O)N[C@@H]3CCCC[C@@H]3NC(=O)CN)sc3nccc1c23 (single isomer, unassigned) [Example 129, N-((1R,2S)-2-(2-Aminoacetamido)cyclohexyl)-5-(*S)-(2-methyl-4-phenoxyphenyl)-4-oxo-4,5-dihydro-3H-1-thia-3,5,8-triazaacenaphthylene-2-carboxamide]	7.39
CNCC(=O)N[C@H]1CCC[C@@H]1NC(=O)c1sc2nccc3c2c1NC(=O)N3c1ccc(Oc2ccccc2)cc1C (single isomer, unassigned) [Example 133, 5-(*S)-(2-Methyl-4-phenoxyphenyl)-N-((1S,2S)-2-(2-(methylamino)acetamido)cyclopentyl)-4-oxo-4,5-dihydro-3H-1-thia-3,5,8-triazaacenaphthylene-2-carboxamide]	7.13
CC(=O)N[C@H]1CCC[C@@H]1NC(=O)c1sc2nccc3c2c1NC(=O)N3c1ccc(Oc2ccccc2)cc1C (single isomer, unassigned) [Example 134, N-((1S,2S)-2-Acetamidocyclopentyl)-5-(*S)-(2-methyl-4-phenoxyphenyl)-4-oxo-4,5-dihydro-3H-1-thia-3,5,8-triazaacenaphthylene-2-carboxamide]	6.76
Cc1cc(Oc2ccccc2)ccc1N1C(=O)Nc2c(C(=O)N[C@H]3CCC[C@@H]3N)sc3nccc1c23 (single isomer, unassigned) [Example 135, N-((1S,2S)-2-Aminocyclopentyl)-5-(*S)-(2-methyl-4-phenoxyphenyl)-4-oxo-4,5-dihydro-3H-1-thia-3,5,8-triazaacenaphthylene-2-carboxamide]	6.82
CC(=O)N[C@H]1CCCC[C@H]1NC(=O)c1sc2nccc3c2c1NC(=O)N3c1ccc(Oc2ccccc2)cc1C (single isomer, unassigned) [Example 136, N-((1R,2S)-2-Acetamidocyclohexyl)-5-(*S)-(2-methyl-4-phenoxyphenyl)-4-oxo-4,5-dihydro-3H-1-thia-3,5,8-triazaacenaphthylene-2-carboxamide]	7.52
CC(=O)N[C@H]1CCC[C@H]1NC(=O)c1sc2nccc3c2c1NC(=O)N3c1ccc(Oc2ccccc2)cc1C (single isomer, unassigned) [Example 138, N-((1R,2S)-2-Acetamidocyclopentyl)-5-(*S)-(2-methyl-4-phenoxyphenyl)-4-oxo-4,5-dihydro-3H-1-thia-3,5,8-triazaacenaphthylene-2-carboxamide]	7.49
C=CC(=O)N[C@H]1CCC[C@H]1NC(=O)c1sc2nccc3c2c1NC(=O)N3c1ccc(OC(C)C)cc1C (single isomer, unassigned) [Example 165, N-((1R,2S)-2-Acrylamidocyclopentyl)-5-(*R)-(4-isopropoxy-2-methylphenyl)-4-oxo-4,5-dihydro-3H-1-thia-3,5,8-triazaacenaphthylene-2-carboxamide]	8.30
C=CC(=O)N[C@H]1CCC[C@H]1NC(=O)c1sc2nccc3c2c1NC(=O)N3c1cnc(Oc2ccccc2)nc1C (single isomer, unassigned) [Example 166, N-((1R,2S)-2-Acrylamidocyclopentyl)-5-(*S)-(4-methyl-2-phenoxypyrimidin-5-yl)-4-oxo-4,5-dihydro-3H-1-thia-3,5,8-triazaacenaphthylene-2-carboxamide]	8.13
Cc1cc(Oc2ccccc2)ncc1N1C(=O)Nc2c(C(=O)N[C@@H]3CCC[C@@H]3N)sc3nccc1c23 (single isomer, unassigned) [Example 170, N-((1R,2S)-2-Aminocyclopentyl)-5-(*S)-(4-methyl-6-phenoxypyridin-3-yl)-4-oxo-4,5-dihydro-3H-1-thia-3,5,8-triazaacenaphthylene-2-carboxamide]	7.02
C=CC(=O)N[C@H]1CCC[C@H]1NC(=O)c1sc2nccc3c2c1NC(=O)N3c1cnc(Oc2ccccc2)cc1C (single isomer, unassigned) [Example 171, N-((1R,2S)-2-Acrylamidocyclopentyl)-5-(*S)-(4-methyl-6-phenoxypyridin-3-yl)-4-oxo-4,5-dihydro-3H-1-thia-3,5,8-triazaacenaphthylene-2-carboxamide]	8.19
C=CC(=O)N[C@H]1CCCC[C@H]1NC(=O)c1sc2nccc3c2c1NC(=O)N3c1cnc(Oc2ccccc2)cc1C (single isomer, unassigned) [Example 173, N-((1R,2S)-2-Acrylamidocyclohexyl)-5-(*S)-(4-methyl-6-phenoxypyridin-3-yl)-4-oxo-4,5-dihydro-3H-1-thia-3,5,8-triazaacenaphthylene-2-carboxamide]	8.02
C=CC(=O)N[C@H]1CCCC[C@H]1NC(=O)c1sc2nccc3c2c1NC(=O)N3c1ccc(OC(C)C)cc1C (single isomer, unassigned) [Example 174, N-((1R,2S)-2-Acrylamidocyclohexyl)-5-(*R)-(4-isopropoxy-2-methylphenyl)-4-oxo-4,5-dihydro-3H-1-thia-3,5,8-triazaacenaphthylene-2-carboxamide]	8.28
C=CC(=O)N[C@@H]1CC[C@@H](NC(=O)c2sc3nccc4c3c2NC(=O)N4c2ccc(Oc3ccccc3)cc2C)C1 (single isomer, unassigned) [Example 175, N-((1R,3R)-3-Acrylamidocyclopentyl)-5-(*S)-(2-methyl-4-phenoxyphenyl)-4-oxo-4,5-dihydro-3H-1-thia-3,5,8-triazaacenaphthylene-2-carboxamide]	8.05
C=CC(=O)N[C@@H]1CCC[C@H](NC(=O)c2sc3nccc4c3c2NC(=O)N4c2ccc(Oc3ccccc3)cc2C)C1 (single isomer, unassigned) [Example 176, N-((1S,3R)-3-Acrylamidocyclohexyl)-5-(*S)-(2-methyl-4-phenoxyphenyl)-4-oxo-4,5-dihydro-3H-1-thia-3,5,8-triazaacenaphthylene-2-carboxamide]	7.78

Results, then the compound that gave them:

BTK_I_binding pIC50	SMILES
7.10	Cc1cc(Oc2ccccc2)ccc1N1C(=O)Nc2c(C(=O)N[C@@H]3CCC[C@@H]3NC(=O)CN(C)C)sc3nccc1c23 (single isomer, unassigned) [Example 128, N-((1R,2S)-2-(2-(Dimethylamino)acetamido)cyclopentyl)-5-(*S)-(2-methyl-4-phenoxyphenyl)-4-oxo-4,5-dihydro-3H-1-thia-3,5,8-triazaacenaphthylene-2-carboxamide]
7.17	Cc1cc(Oc2ccccc2)ccc1N1C(=O)Nc2c(C(=O)N[C@H]3CCC[C@@H]3NC(=O)CN)sc3nccc1c23 (single isomer, unassigned) [Example 130, N-((1S,2S)-2-(2-Aminoacetamido)cyclopentyl)-5-(*S)-(2-methyl-4-phenoxyphenyl)-4-oxo-4,5-dihydro-3H-1-thia-3,5,8-triazaacenaphthylene-2-carboxamide]
7.40	Cc1cc(Oc2ccccc2)ccc1N1C(=O)Nc2c(C(=O)N[C@@H]3CCC[C@@H]3NC(=O)CN)sc3nccc1c23 (single isomer, unassigned) [Example 131, N-((1R,2S)-2-(2-Aminoacetamido)cyclopentyl)-5-(*S)-(2-methyl-4-phenoxyphenyl)-4-oxo-4,5-dihydro-3H-1-thia-3,5,8-triazaacenaphthylene-2-carboxamide]
7.27	Cc1cc(Oc2ccccc2)ccc1N1C(=O)Nc2c(C(=O)N[C@@H]3CCCC[C@@H]3NC(=O)CN(C)C)sc3nccc1c23 (single isomer, unassigned) [Example 132, N-((1R,2S)-2-(2-(Dimethylamino)acetamido)cyclohexyl)-5-(*S)-(2-methyl-4-phenoxyphenyl)-4-oxo-4,5-dihydro-3H-1-thia-3,5,8-triazaacenaphthylene-2-carboxamide]
6.36	Cc1cc(Oc2ccccc2)ccc1N1C(=O)Nc2c(C(=O)N[C@H]3CCC[C@H]3NC(=O)CN)sc3nccc1c23 (single isomer, unassigned) [Example 154, N-((1S,2R)-2-(2-Aminoacetamido)cyclopentyl)-5-(*S)-(2-methyl-4-phenoxyphenyl)-4-oxo-4,5-dihydro-3H-1-thia-3,5,8-triazaacenaphthylene-2-carboxamide]
6.35	Cc1cc(Oc2ccccc2)ccc1N1C(=O)Nc2c(C(=O)N[C@H]3CCC[C@H]3NC(=O)CN(C)C)sc3nccc1c23 (single isomer, unassigned) [Example 155, N-((1S,2R)-2-(2-(Dimethylamino)acetamido)cyclopentyl)-5-(*S)-(2-methyl-4-phenoxyphenyl)-4-oxo-4,5-dihydro-3H-1-thia-3,5,8-triazaacenaphthylene-2-carboxamide]
6.26	CNCC(=O)N[C@@H]1CCC[C@@H]1NC(=O)c1sc2nccc3c2c1NC(=O)N3c1ccc(Oc2ccccc2)cc1C (single isomer, unassigned) [Example 156, 5-(*S)-(2-Methyl-4-phenoxyphenyl)-N-((1S,2R)-2-(2-(methylamino)acetamido)cyclopentyl)-4-oxo-4,5-dihydro-3H-1-thia-3,5,8-triazaacenaphthylene-2-carboxamide]

same assay, conditions: read-out: BTK_I_binding pIC50 (converted)

SMILES	IC50 [nM]
CC(=O)N[C@@H]1CCC[C@@H]1NC(=O)c1sc2nccc3c2c1NC(=O)N3c1ccc(Oc2ccccc2)cc1C (single isomer, unassigned) [Example 162, N-((1S,2R)-2-Acetamidocyclopentyl)-5-(*S)-(2-methyl-4-phenoxyphenyl)-4-oxo-4,5-dihydro-3H-1-thia-3,5,8-triazaacenaphthylene-2-carboxamide]	> 1000

— US10934310B2, “Inhibitors of Bruton's tyrosine kinase and method of their use” (JANSSEN PHARMACEUTICA NV, priority 2015, dated 2021)
